Patent US20250242006A1, “DRY POWDER COMPOSITIONS COMPRISING EUKARYOTIC CELLS AND METHOD OF THEIR MANUFACTURE AND USE” (BOARD OF REGENTS, THE UNIVERSITY OF TEXAS SYSTEM, priority 2021, published 2025)

Tested on: J774A.1 cells
Assay: Viability of J774A.1 cells after thin-film freeze-drying (TFFD), trypan blue stain
Format: cell-based, murine
Description: Excipients that were used for their ability to preserve the cells includes disaccharide such as Trehalose, antioxidants such as EGCG, D-α-tocopherol succinate, D-α-tocopherol PEG1000 succinate, Trolox, glutathione, and L-ascorbic acid, polymers such as PVP-40, P-188, dextrin, dextran, and HSA. An equivalent volume of the above-mentioned excipients in complete DMEM or Dulbecco phosphate buffered saline (DPBS) was mixed with cells at final cell concentration of 2.5×10^6 cells/ml for J774A.1 macrophages or 1.0×10^6 cells/mL for THP-1 cells. Cells mixed with trehalose and antioxidant were incubated at 37° C. in 5% CO2 incubator. Polymers and proteins were added to the cells without incubation. The TFF technique was applied to the cell suspension by dropping them as droplets of 3.6-3.8 mm in diameter, 200 μl in 7-8 drops, from a distance of 1-10 cm onto the surface of a cryogenically cooled glass (˜−80° C. achieved using dry ice), which were then stored in −80° C. for 1 h until the lyophilization process. The lyophilizer shelf temperature was set at −35° C., with vacuum pressure at 100 mTorr for 12 h. To measure the viability of the cells after TFFD, the powders were resuspended in DMEM media or DPBS, and cell viability was assessed after trypan blue stain (0.4%, Gibco, Grand Island, NY) using a TC20 Bio-Rad automatic cell counter (Hercules, CA).

Row | SMILES | effect on J774A.1 cell viability after TFFD (antioxidant at 800 μg/ml) | effect on J774A.1 cell viability after TFFD (antioxidant at 500 µM)
1 | Cc1c(C)c2c(c(C)c1OC(=O)CCC(=O)O)CC[C@@](C)(CCC[C@H](C)CCC[C@H](C)CCCC(C)C)O2 [D-α-tocopherol succinate] | helped improve the viability | 
2 | Cc1c(C)c2c(c(C)c1O)CCC(C)(C(=O)O)O2 (centres unmarked) [Trolox] |  | helped improve the viability
